For test [1], the system named is Plk1. The note with it: read-out: IC50 against Plk1; cited from earlier work.
The test system of test [2] is HeLa cells. Put plainly: MTS cell proliferation assay in asynchronously growing HeLa cells. It counts as cell-based, human. The settings on record: treated 2 days. For orientation: Tetrazolium assays rely on reduction of a dye to a coloured formazan, in cell work by metabolically active cells.

In the case of PLH*SpT, in test [1], the IC50 (usually the concentration that inhibits the measured activity by half) was 0.017 µM.

For the substance PLHST, the “inhibition of cell proliferation (MTS)” value in test [2] was “failed to show any detectable level of cell cytotoxicity”.
